Molecular target: T1, GLP-1 receptor (GLP-1R) (Rattus norvegicus, UniProt P32301)
T1 construct: endogenous in cells; host or cells: rat INS-1 cells
T1 sequence (P32301 22-463): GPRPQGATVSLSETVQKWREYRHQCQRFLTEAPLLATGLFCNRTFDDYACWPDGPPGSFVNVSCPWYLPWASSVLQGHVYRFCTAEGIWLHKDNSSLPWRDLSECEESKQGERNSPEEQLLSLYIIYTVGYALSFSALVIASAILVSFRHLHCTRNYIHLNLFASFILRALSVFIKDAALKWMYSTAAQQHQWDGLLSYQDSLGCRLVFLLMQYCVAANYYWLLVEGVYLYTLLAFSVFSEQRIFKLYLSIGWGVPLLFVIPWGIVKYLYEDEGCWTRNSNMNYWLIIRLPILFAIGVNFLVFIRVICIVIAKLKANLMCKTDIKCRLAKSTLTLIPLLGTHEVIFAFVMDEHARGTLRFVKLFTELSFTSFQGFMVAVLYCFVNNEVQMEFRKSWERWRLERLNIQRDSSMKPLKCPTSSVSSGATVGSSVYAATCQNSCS
Test: GLP-1 receptor binding assay (cellular ELISA)
Procedure: Cells were rinsed with PBS and fixed with 4% paraformaldehyde (Thermo Scientific) for 10 min at room temperature and quenched for 5 min with 2% glycine in PBS, pH 7.5. […] After a 2 h incubation at 37 °C in a final volume of 100 μl, the excess peptides were washed, and the cells were blocked with 5% BSA (BD Biosciences). […] Colorimetric changes were analyzed by reading the absorbance at 450 nm in a SpectraMax M5 (Molecular Device) microplate reader. The peptide concentration was plotted against UV absorbance, and the Kd was calculated using Origin 7.0 software.

Row | Structure (SMILES) | Kd
1 | CCCCCCCCCCCCCCCC(=O)NCCCC[C@H](NC(=O)[C@H](C)NC(=O)[C@H](C)NC(=O)[C@H](CCC(N)=O)NC(=O)CNC(=O)[C@H](CCC(=O)O)NC(=O)[C@H](CC(C)C)NC(=O)[C@H](Cc1ccc(O)cc1)NC(=O)[C@H](CO)NC(=O)[C@H](CO)NC(=O)[C@@H](NC(=O)[C@H](CC(=O)O)NC(=O)[C@H](CO)NC(=O)[C@@H](NC(=O)[C@H](Cc1ccccc1)NC(=O)[C@@H](NC(=O)CNC(=O)[C@H](CCC(=O)O)NC(=O)[C@H](C)NC(=O)[C@@H](N)Cc1c[nH]cn1)[C@@H](C)O)[C@@H](C)O)C(C)C)C(=O)N[C@@H](CCC(=O)O)C(=O)N[C@@H](Cc1ccccc1)C(=O)N[C@H](C(=O)N[C@@H](C)C(=O)N[C@@H](Cc1c[nH]c2ccccc12)C(=O)N[C@@H](CC(C)C)C(=O)N[C@H](C(=O)N[C@@H](CCCCN)C(=O)NCC(=O)N[C@@H](CCCNC(=N)N)C(=O)NCC(=O)O)C(C)C)[C@@H](C)CC [compound 3] | 33.8 ± 1.21 nM
2 | CCCCCCCCCCCCNC(=O)CC[C@H](NC(=O)[C@H](C)NC(=O)[C@@H](N)Cc1c[nH]cn1)C(=O)NCC(=O)N[C@H](C(=O)N[C@@H](Cc1ccccc1)C(=O)N[C@H](C(=O)N[C@@H](CO)C(=O)N[C@@H](CC(=O)O)C(=O)N[C@H](C(=O)N[C@@H](CO)C(=O)N[C@@H](CO)C(=O)N[C@@H](Cc1ccc(O)cc1)C(=O)N[C@@H](CC(C)C)C(=O)N[C@@H](CCC(=O)O)C(=O)NCC(=O)N[C@@H](CCC(N)=O)C(=O)N[C@@H](C)C(=O)N[C@@H](C)C(=O)N[C@@H](CCCCN)C(=O)N[C@@H](CCC(=O)O)C(=O)N[C@@H](Cc1ccccc1)C(=O)N[C@H](C(=O)N[C@@H](C)C(=O)N[C@@H](Cc1c[nH]c2ccccc12)C(=O)N[C@@H](CC(C)C)C(=O)N[C@H](C(=O)N[C@@H](CCCCN)C(=O)NCC(=O)N[C@@H](CCCNC(=N)N)C(=O)NCC(=O)O)C(C)C)[C@@H](C)CC)C(C)C)[C@@H](C)O)[C@@H](C)O [compound 8] | 96.7 ± 2.95 nM
3 | CCCCCCCCNC(=O)CC[C@H](NC(=O)[C@H](CCCCN)NC(=O)[C@H](C)NC(=O)[C@H](C)NC(=O)[C@H](CCC(N)=O)NC(=O)CNC(=O)[C@H](CCC(=O)O)NC(=O)[C@H](CC(C)C)NC(=O)[C@H](Cc1ccc(O)cc1)NC(=O)[C@H](CO)NC(=O)[C@H](CO)NC(=O)[C@@H](NC(=O)[C@H](CC(=O)O)NC(=O)[C@H](CO)NC(=O)[C@@H](NC(=O)[C@H](Cc1ccccc1)NC(=O)[C@@H](NC(=O)CNC(=O)[C@H](CCC(=O)O)NC(=O)[C@H](C)NC(=O)[C@@H](N)Cc1c[nH]cn1)[C@@H](C)O)[C@@H](C)O)C(C)C)C(=O)N[C@@H](Cc1ccccc1)C(=O)N[C@H](C(=O)N[C@@H](C)C(=O)N[C@@H](Cc1c[nH]c2ccccc12)C(=O)N[C@@H](CC(C)C)C(=O)N[C@H](C(=O)N[C@@H](CCCCN)C(=O)NCC(=O)N[C@@H](CCCNC(=N)N)C(=O)NCC(=O)O)C(C)C)[C@@H](C)CC [compound 16] | 22.3 ± 0.46 nM
4 | CCCCCCCCCCCCCCCCNC(=O)C[C@H](NC(=O)[C@H](CO)NC(=O)[C@@H](NC(=O)[C@H](Cc1ccccc1)NC(=O)[C@@H](NC(=O)CNC(=O)[C@H](CCC(=O)O)NC(=O)[C@H](C)NC(=O)[C@@H](N)Cc1c[nH]cn1)[C@@H](C)O)[C@@H](C)O)C(=O)N[C@H](C(=O)N[C@@H](CO)C(=O)N[C@@H](CO)C(=O)N[C@@H](Cc1ccc(O)cc1)C(=O)N[C@@H](CC(C)C)C(=O)N[C@@H](CCC(=O)O)C(=O)NCC(=O)N[C@@H](CCC(N)=O)C(=O)N[C@@H](C)C(=O)N[C@@H](C)C(=O)N[C@@H](CCCCN)C(=O)N[C@@H](CCC(=O)O)C(=O)N[C@@H](Cc1ccccc1)C(=O)N[C@H](C(=O)N[C@@H](C)C(=O)N[C@@H](Cc1c[nH]c2ccccc12)C(=O)N[C@@H](CC(C)C)C(=O)N[C@H](C(=O)N[C@@H](CCCCN)C(=O)NCC(=O)N[C@@H](CCCNC(=N)N)C(=O)NCC(=O)O)C(C)C)[C@@H](C)CC)C(C)C [compound 12] | 84.6 ± 4.36 nM
5 | CCCCCCCCCCCCNC(=O)C[C@H](NC(=O)[C@H](CO)NC(=O)[C@@H](NC(=O)[C@H](Cc1ccccc1)NC(=O)[C@@H](NC(=O)CNC(=O)[C@H](CCC(=O)O)NC(=O)[C@H](C)NC(=O)[C@@H](N)Cc1c[nH]cn1)[C@@H](C)O)[C@@H](C)O)C(=O)N[C@H](C(=O)N[C@@H](CO)C(=O)N[C@@H](CO)C(=O)N[C@@H](Cc1ccc(O)cc1)C(=O)N[C@@H](CC(C)C)C(=O)N[C@@H](CCC(=O)O)C(=O)NCC(=O)N[C@@H](CCC(N)=O)C(=O)N[C@@H](C)C(=O)N[C@@H](C)C(=O)N[C@@H](CCCCN)C(=O)N[C@@H](CCC(=O)O)C(=O)N[C@@H](Cc1ccccc1)C(=O)N[C@H](C(=O)N[C@@H](C)C(=O)N[C@@H](Cc1c[nH]c2ccccc12)C(=O)N[C@@H](CC(C)C)C(=O)N[C@H](C(=O)N[C@@H](CCCCN)C(=O)NCC(=O)N[C@@H](CCCNC(=N)N)C(=O)NCC(=O)O)C(C)C)[C@@H](C)CC)C(C)C [compound 11] | 97.4 ± 2.11 nM

Now those with a lower Kd, led by results:

Row | Kd | Structure (SMILES)
6 | 18.4 ± 2.36 nM | CCCCCCCCCCCCNC(=O)CC[C@H](NC(=O)[C@H](CC(C)C)NC(=O)[C@H](Cc1ccc(O)cc1)NC(=O)[C@H](CO)NC(=O)[C@H](CO)NC(=O)[C@@H](NC(=O)[C@H](CC(=O)O)NC(=O)[C@H](CO)NC(=O)[C@@H](NC(=O)[C@H](Cc1ccccc1)NC(=O)[C@@H](NC(=O)CNC(=O)[C@H](CCC(=O)O)NC(=O)[C@H](C)NC(=O)[C@@H](N)Cc1c[nH]cn1)[C@@H](C)O)[C@@H](C)O)C(C)C)C(=O)NCC(=O)N[C@@H](CCC(N)=O)C(=O)N[C@@H](C)C(=O)N[C@@H](C)C(=O)N[C@@H](CCCCN)C(=O)N[C@@H](CCC(=O)O)C(=O)N[C@@H](Cc1ccccc1)C(=O)N[C@H](C(=O)N[C@@H](C)C(=O)N[C@@H](Cc1c[nH]c2ccccc12)C(=O)N[C@@H](CC(C)C)C(=O)N[C@H](C(=O)N[C@@H](CCCCN)C(=O)NCC(=O)N[C@@H](CCCNC(=N)N)C(=O)NCC(=O)O)C(C)C)[C@@H](C)CC [compound 14]
7 | 15.4 ± 0.67 nM | CCCCCCCC(=O)NCCCC[C@H](NC(=O)[C@@H](NC(=O)[C@H](CC(C)C)NC(=O)[C@H](Cc1c[nH]c2ccccc12)NC(=O)[C@H](C)NC(=O)[C@@H](NC(=O)[C@H](Cc1ccccc1)NC(=O)[C@H](CCC(=O)O)NC(=O)[C@H](CCCCN)NC(=O)[C@H](C)NC(=O)[C@H](C)NC(=O)[C@H](CCC(N)=O)NC(=O)CNC(=O)[C@H](CCC(=O)O)NC(=O)[C@H](CC(C)C)NC(=O)[C@H](Cc1ccc(O)cc1)NC(=O)[C@H](CO)NC(=O)[C@H](CO)NC(=O)[C@@H](NC(=O)[C@H](CC(=O)O)NC(=O)[C@H](CO)NC(=O)[C@@H](NC(=O)[C@H](Cc1ccccc1)NC(=O)[C@@H](NC(=O)CNC(=O)[C@H](CCC(=O)O)NC(=O)[C@H](C)NC(=O)[C@@H](N)Cc1c[nH]cn1)[C@@H](C)O)[C@@H](C)O)C(C)C)[C@@H](C)CC)C(C)C)C(=O)NCC(=O)N[C@@H](CCCNC(=N)N)C(=O)NCC(=O)O [compound 4]
8 | 19.6 ± 2.14 nM | CCCCCCCCNC(=O)C[C@H](NC(=O)[C@@H](NC(=O)[C@H](CC(C)C)NC(=O)[C@H](Cc1c[nH]c2ccccc12)NC(=O)[C@H](C)NC(=O)[C@@H](NC(=O)[C@H](Cc1ccccc1)NC(=O)[C@H](CCC(=O)O)NC(=O)[C@H](CCCCN)NC(=O)[C@H](C)NC(=O)[C@H](C)NC(=O)[C@H](CCC(N)=O)NC(=O)CNC(=O)[C@H](CCC(=O)O)NC(=O)[C@H](CC(C)C)NC(=O)[C@H](Cc1ccc(O)cc1)NC(=O)[C@H](CO)NC(=O)[C@H](CO)NC(=O)[C@@H](NC(=O)[C@H](CC(=O)O)NC(=O)[C@H](CO)NC(=O)[C@@H](NC(=O)[C@H](Cc1ccccc1)NC(=O)[C@@H](NC(=O)CNC(=O)[C@H](CCC(=O)O)NC(=O)[C@H](C)NC(=O)[C@@H](N)Cc1c[nH]cn1)[C@@H](C)O)[C@@H](C)O)C(C)C)[C@@H](C)CC)C(C)C)C(=O)NCC(=O)N[C@@H](CCCNC(=N)N)C(=O)NCC(=O)O [compound 19]

— article PMC4676015, “Variant fatty acid-like molecules Conjugation, novel approaches for extending the stability of therapeutic peptides” (Scientific Reports, 2015)
